Test results taken from patent US10966423B2, “Anti-microbial agent comprising xanthohumol and the use thereof in food products” (Purac Biochem B.V., priority 2015, dated 2021).
In brackets after ≈: the same amount, converted by molar mass. Read-outs that look alike come from different tables or passages of the source.

Columns and labels:
Type in all cases: cell-based
Aspergillus Niger = test: visible growth of mould hyphae in MEA broth; conditions: MEA broth pH 3.5, 14 days, 25° C., 10^4 spores per ml; xanthohumol 0.008 wt %, propionate 0.085 wt %
Description: (§1) Two molds, Aspergillus Niger and Penicillium roquefortii were tested on the combinatory effect of xanthohumol in combination with propionate. MEA broth was inoculated with spores of the fungi to a concentration of 10^4 spores per ml. In this example use has been made of the stock solution of xanthohumol as has been described in example 1 above. 4 ml of said stock solution was added to 96 ml of broth to obtain a 0.008% w/w solution in broth.
(§2) Propionate was added to an end concentration of 0.085% of propionate in broth. Also a solution was made with 0.008% w/w of xanthohumol and 0.085% of propionate in broth. As a control experiment broth without antimicrobial components was used. The pH of all media was set to 3.5. After 14 days of incubation at 25° C., the broth was inspected for visible growth of mould hyphae.

Penicillium roquefortii [1] = test: visible growth of mould hyphae in MEA broth; conditions: MEA broth pH 3.5, 14 days, 25° C., 10^4 spores per ml; xanthohumol 0.008 wt %, propionate 0.085 wt %
Description: as §1, §2

Lactobacillus plantarum [2] = test: growth of Lactobacillus plantarum in food products (baby food, pasta sauce); conditions: for Lactobacillus plantarum cell density: xanthohumol 0.004 mg/ml
Description: In this example, the influence of xanthohumol on growth of Lactobacillus plantarum in baby food and in pasta sauce was assessed. For this purpose the baby food was sterilized and the pH was adjusted at pH 4.8, and the pasta sauce was sterilized and the pH was adjusted to pH 4.2. At time-point t=0, three samples of both the baby food and the pasta sauce were inoculated with a Lactobacillus plantarum starter culture, at a final Lactobacillus cell density of approximately 1*10^4 cells/ml. For the baby food and the pasta sauce, one sample each was inoculated in the presence of 0.2% by weight xanthohumol composition to a final concentration of xanthohumol in the food product of 0.004 mg/ml. Lactobacillus plantarum cell density was determined in the food products at t=0 and at t=24 hours.

Aspergillus flavus = test: mold outgrowth (OD) in semi-solid MEA agar, xanthohumol/calcium propionate gradient; conditions: FIG. 4; day 13, pH 6; calcium propionate 0-0.5%, xanthohumol 0-0.00195%
Description: (§3) Five molds, Penicillium roquefortii, Aspergillus flavus, Fusarium oxysporum, Paecilomyces variotii, and Mucor plumbeus, were tested on the combinatory effect of xanthohumol combined with calcium propionate. In this example use has been made of a stock solution of 0.52% w/w XanthoFlav (equivalent to 0.0104% w/w xanthohumol) prepared in a similar manner as that described in example 1 above, as well as a stock solution of calcium propionate at 1.6% w/w. A modified semi-solid MEA agar was prepared by mixing 50 g of Malt Extract broth (Oxoid) with 7.5 g of Bacteriological Agar No. 1 (Oxoid) to create a 2× reduced agar MEA. This was autoclaved at 120° C. for 15 minutes. Bottles of this MEA were held at 50° C. until ready for inoculation, at which point they were inoculated with a single strain of the above listed molds at approximately 10^4 spores per ml. This level of inoculation ensures 500-1000 spores per well in the 96 well plate. All media was set to pH 6.
(§4) The 2×MEA was mixed with the stock solutions of xanthohumol, calcium propionate, and sterilized H2O as a diluent in 96 well plates using an automated plate filler to create a concentration gradient of calcium propionate ranging from 0% to 0.5% along one axis and xanthohumol from 0% to 0.00195% along the other axis. Wells containing 0% of both antimicrobials served as a control. This allowed for testing approximately 24 different combinations of the two antimicrobials on one plate. Each well contained 75 μL of inoculated 2× reduced agar MEA, 75 μL of a mix of antimicrobials/diluent, and was capped with 75 μL of paraffin oil after the agar had set. Ninety-six well plates were then sealed with an oxygen permeable membrane to prevent contamination of wells.
(§5) OD measurements were taken approximately once a day, and outgrowth (measured by an increase in OD) was tracked over time. Measurements at the final reading (day 13) were placed in a 3D graph to visualize the additive effects of the two antimicrobials as levels of each increased across the plate.

Mucor plumbeus = test: as above; conditions: FIG. 5; day 13, pH 6; calcium propionate 0-0.5%, xanthohumol 0-0.00195%
Description: as §3, §4, §5

Fusarium oxysporum = test: as above; conditions: FIG. 2; day 13, pH 6; calcium propionate 0-0.5%, xanthohumol 0-0.00195%
Description: as §3, §4, §5

Penicillium roquefortii [3] = test: as above; conditions: FIG. 1; day 13, pH 6; calcium propionate 0-0.5%, xanthohumol 0-0.00195%
Description: as §3, §4, §5

Paecilomyces variotii = test: as above; conditions: FIG. 3; day 13, pH 6; calcium propionate 0-0.5%, xanthohumol 0-0.00195%
Description: as §3, §4, §5

[4] = system: Lactobacillus acidophilus; test: minimum inhibitory concentration on lactic acid bacteria, overnight in MRS medium; conditions: DSM20079, strain DSM 20079, 30° C., 10^5 cfu/ml, read-out: MIC calculated to xanthohumol
Description: (§6) One part xanthohumol Xantho-Flav Extract (with 2% of xanthohumol) on diatomaceous earth is incubated with 9 parts of hot water at 100° C., boiling for <1 minute while vigorously shaking. After incubation, solid material is discarded. This way, a stock solution with 10% of Xanthoflav or about 0.2% xanthohumol (2 mg/ml) is obtained, which is used in the following examples.
(§7) For testing the anti-microbial activity a test composition comprising xanthohumol was applied. The test composition was prepared as follows. At the highest concentration 100 μl of the xanthohumol stock solution at 2 mg/ml in water (See Example 1) was added to 100 μl of 2 times concentrated MRS medium, providing a test composition comprising 1 mg/ml by weight xanthohumol in MRS medium.
(§8) Pre-cultures of test bacteria were cultured using standard techniques. Bacteria were cultured in MRS medium 48 hrs before the start of the experiments.
(§9) Five μl of the bacterium pre-cultures was brought in 200 μl of test medium (medium+component+water) and mixed with a concentration series of the test composition comprising xanthohumol. Final bacterium density at the start of the overnight experiment was 10^5 cfu/ml. Xanthohumol was tested up to a concentration of 0.01 mg/ml (based on an addition level of up to 0.05% w/w of Xanthoflav). Negative control was inoculated broth, positive control was inoculated MRS medium. Bacterium cultures were cultured overnight at 30° C., under constant shaking. After incubation, the minimum inhibitory concentration for each test organism was scored (Table 1).

Lactobacillus brevis = test: as above; conditions: Levilactobacillus brevis, 10^5 cfu/ml, read-out: MIC calculated to xanthohumol
Description: as §6, §7, §8, §9

[5] = system: Leuconostoc mesenteroides; test: as above; conditions: strain AR049, 30° C., 10^5 cfu/ml, read-out: MIC calculated to xanthohumol
Description: as §6, §7, §8, §9

Lactobacillus plantarum [6] = test: as above; conditions: Lactiplantibacillus plantarum, 10^5 cfu/ml, read-out: MIC calculated to xanthohumol
Description: as §6, §7, §8, §9

Lactobacillus farciminis = test: as above; conditions: Companilactobacillus farciminis, strain AR053, 30° C., 10^5 cfu/ml, read-out: MIC calculated to xanthohumol
Description: as §6, §7, §8, §9

Lactobacilllus curvatus = test: as above; conditions: 10^5 cfu/ml
Description: as §6, §7, §8, §9

[7] = system: lactic acid bacteria (L. curvatus, 3×L. plantarum and L. mesenteroides); test: shelf life of sausages inoculated with lactic acid bacteria
Description: Sausages were produced according to the following procedure. The ingredients defined as weight percentages in Table 5 were used for the preparation of the sausage. Xanthoflav was used as such, without a preparation step such as applied in Example 1.
First the meat was shredded, and salt, tri polyphosphate and half of the water was added. After mixing very well, the other ingredients were added. The meat dough was put in a cook crimp bag and vacuum sealed. After sealing the bags were canned. The sausages were cooked in a cooking cabinet for 120 minutes at 75° C. and afterwards cooled down to 15° C. […]
In a first step an inoculum was prepared as follows. Cultures of lactic acid bacteria (L. curvatus, 3×L. plantarum and L. mesenteroides) are started from plate and incubated overnight at 30° C. in screw-capped tubes (100×16 mm) containing 10 ml MRS broth.
Sausages were inoculated to a final level of about 1000 (10^3) CFU per g product. The sausage was inoculated with 1% Inoculum (approximately 5 ml Inoculum per 500 gram ground meat). […]
Fifty μl of the homogenate or dilution was subsequently plated on MRS agar using an Eddyjet type 1.23 spiral plater (IUL Instruments, Barcelona, Spain). […] The colonies were counted with the Acolyte Supercount automatic colony counter (Synoptics, Cambridge, UK) using the Synoptics software package. […]

Question: For `COc1cc(O)c(CC=C(C)C)c(O)c1C(=O)/C=C/c1ccc(O)cc1` [xanthohumol], which “visible growth of mould hyphae” value (Aspergillus Niger) is on record?
Answer: Growth

Question: And the “visible growth of mould hyphae” value (Penicillium roquefortii [1])?
Answer: Growth

Question: And the “Lactobacillus plantarum cell density” value (Lactobacillus plantarum [2]; baby food pH 4.8, 0 h)?
Answer: 3.8 × 10^4

Question: What about the “Lactobacillus plantarum cell density” value (Lactobacillus plantarum [2]; baby food pH 4.8, 24 h, control 3 × 10^7) of the same compound?
Answer: 3 × 10^4

Question: And the “inhibitory effect on Lactobacillus plantarum” value (Lactobacillus plantarum [2]; in baby food and pasta sauce)?
Answer: strong inhibitory effect

Question: What about the “Lactobacillus plantarum cell density” value (Lactobacillus plantarum [2]; pasta sauce pH 4.2, 0 h) of the same compound?
Answer: 3 × 10^4

Question: What about the “Lactobacillus plantarum cell density” value (Lactobacillus plantarum [2]; pasta sauce pH 4.2, 24 h, control 6 × 10^5) of the same compound?
Answer: <100

Question: What about the “Inhibition of A. flavus (outgrowth by OD)” value (Aspergillus flavus) of the same compound?
Answer: inhibiting effect by itself

Question: And the “Inhibition of M plumbeus (outgrowth by OD)” value (Mucor plumbeus)?
Answer: inhibiting effect by itself

Question: And the “Inhibition of F. oxysporum (outgrowth by OD)” value (Fusarium oxysporum)?
Answer: inhibiting effect by itself

Question: And the “Inhibition of P. roquefortii (outgrowth by OD)” value (Penicillium roquefortii [3])?
Answer: inhibiting effect by itself

Question: And the “Inhibition of P. variotii (outgrowth by OD)” value (Paecilomyces variotii)?
Answer: inhibiting effect by itself

Question: And the MIC [4]?
Answer: 10 µg/mL (≈ 28.2 µM)

Question: What about the MIC (Lactobacillus brevis; LMG6906, strain LMG 6906, 30° C.) of the same compound?
Answer: 2 µg/mL (≈ 5.64 µM)

Question: What about the MIC (Lactobacillus brevis; strain AR043, 30° C.) of the same compound?
Answer: 2 µg/mL (≈ 5.64 µM)

Question: What about the MIC [5] of the same compound?
Answer: 2 µg/mL (≈ 5.64 µM)

Question: What about the MIC (Lactobacillus plantarum [6]; DSM20174, strain DSM 20174, 30° C.) of the same compound?
Answer: 4 µg/mL (≈ 11.3 µM)

Question: What about the MIC (Lactobacillus plantarum [6]; strain AR052, 30° C.) of the same compound?
Answer: 2 µg/mL (≈ 5.64 µM)

Question: What about the MIC (Lactobacillus farciminis) of the same compound?
Answer: 4 µg/mL (≈ 11.3 µM)

Question: What about the “MIC calculated to xanthohumol” value (Lactobacilllus curvatus; strain AR095, 30° C.) of the same compound?
Answer: 10 µg/mL (≈ 28.2 µM)

Question: And the MIC (Lactobacilllus curvatus; strain Zand 2, 30° C., read-out: MIC calculated to xanthohumol)?
Answer: 10 µg/mL (≈ 28.2 µM)

Question: Which “visible growth of mould hyphae” value (Aspergillus Niger) does the source give for `CCC(=O)O` [propionate, reference compound] here?
Answer: Growth

Question: What about the “visible growth of mould hyphae” value (Penicillium roquefortii [1]) of the same compound?
Answer: Growth

Question: For `C[C@@H]1OC(=O)[C@H](C)OC1=O` [Nr 3: 0.8% Lactide, Lactide], which “Shelf life of sausages, Days till 10^7 cfu/g” value ([7]; inoculated about 10^3 CFU per g, vacuum sealed, stored at 7° C., control 8.0) is on record?
Answer: 12.5 Days

Question: What about the “shelf life improvement as compared to the control” value ([7]; sausages stored at 7° C.) of the same compound?
Answer: about 4 days
